Results as given in article PMC11892739, “Site-specific molecular glues for the 14-3-3/Tau pS214 protein–protein interaction via reversible covalent imine tethering” (RSC Medicinal Chemistry, 2025).

Molecular target: T1, 14-3-3ζ/Tau pS2 peptide (Homo sapiens, UniProt P63104)
T1 construct: made in house; host or cells: NiCo21 (DE3) E. coli
T1 sequence (P63104 1-245): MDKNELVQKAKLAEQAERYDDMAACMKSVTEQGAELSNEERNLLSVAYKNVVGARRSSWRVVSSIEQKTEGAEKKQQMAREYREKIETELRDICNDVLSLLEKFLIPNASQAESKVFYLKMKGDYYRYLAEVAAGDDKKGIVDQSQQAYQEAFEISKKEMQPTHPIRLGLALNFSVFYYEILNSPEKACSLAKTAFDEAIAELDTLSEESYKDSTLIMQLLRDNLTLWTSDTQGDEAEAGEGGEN
Assay: Differential scanning fluorimetry of 14-3-3 with Tau pS2 peptide and compounds
Format: binding
Conditions: compound 30-fold compared to 14-3-3ζ (75 μM), Tau pS2 peptide 25 μM, 14-3-3 2.5 μM; read-out: additional increase in melting temperature relative to the binary 14-3-3ζ/Tau pS2 peptide system
Protocol: Fig. 3 a Dose–response fluorescence anisotropy data of compound titrations to 10 nM FITC-labeled Tau pS2 peptide and 100 nM 14-3-3ζ. […] Mean of three individually performed experiments (see ESI ^† Fig. S8 for the protein titrations). e Differential scanning fluorimetry assay results. Identified melting temperatures (Tm) of 14-3-3γ alone (2.5 μM) and in the presence of Tau pS2 peptide (25 μM) and additionally with selected compounds (75 μM).
As an orthogonal method to profile the PPI stabilizing activity of selected compounds, differential scanning fluorimetry (DSF) assays were performed (Fig. 3e). […] Upon addition of compounds (1, 11, 13–14, and 20–22) to this PPI complex (30-fold compared to 14-3-3ζ), an additional increase in melting temperature between 0.9 °C and 2.1 °C was observed relative to the binary 14-3-3ζ/Tau pS2 peptide system. These observations are in agreement with the stabilization observed in the FA data and strongly testify to the molecular glue effect of our compound, by enhancing the stability of the PPI complex. […]
chromatography (HisTrap high performance cartridges, Cytiva). Typically two 5 mL columns were used for a 2 L culture in which the lysate was loaded on the column, washed with 10 CV wash buffer (50 mM Hepes, pH 8.0, 300 mM NaCl, 25 mM imidazole, 2 mM βME), and eluted with several fractions (2-4 CV) of elution buffer (50 mM Hepes, pH 8.0, 300 mM NaCl, 250 mM imidazole, 2 mM βME). Fractions containing the 14-3-3 protein were combined and dialyzed into 25 mM HEPES pH 8.0, 200 mM NaCl, 10 mM MgCl2, 2 mM βME, followed by dialysis into 25 mM HEPES, 100 mM NaCl, 10 mM MgCl2, 500 μM TCEP (adjusted to pH 8.0). Dialyzed protein was concentrated to ∼40 mg/mL, analyzed by Q -Tof LC/MS, and aliquots were flash -frozen for storage at −80 °C. For 14 -3-3σ∆c, 1 mg TEV per 100 mg purified protein was added to the dialysis to remove the purification tag. The cleaved sample was then again loaded on a 10 mL Ni-NTA column to separate the cleaved product from the expression tag and residual uncleaved protein. The flowthrough was loade d on a Superdex 75 pg 16/60 size exclusion column (GE Life Sciences) using 25 mM HEPES, 100 mM NaCl, 10 mM MgCl2, 500 μM TCEP (adjusted to pH = 8.0) as running buffer. Fractions containing the 14 -3-3 protein were pooled and concentrated to ∼60 mg/mL, analyzed Q -Tof LC/MS, and aliquots were flash -frozen for storage at −80°C. […]
The peptide screen was performed in a similar way as the 14-3-3ζ titration in the precence of compound.
14-3-3ζ was titrated in a 2-fold dilution series (starting at 400 µM 14-3-3ζ) to 100 nM of fluorescein-labeled peptides and 250 µM compound 18 (1% DMSO) in FA buffer (10 mM HEPES pH 7.4, 150 mM […]
Data shown is the average of a scientific triplicate.
Differential Scanning Fluorimetry (DSF)
DSF was performed using 40 µl samples containing 2.5 µM 14 -3-3ζ, 25 µM Tau peptide (Tau pS2, Tau pS214 or Tau pS324), […] (1% DMSO) and 5x ProteoOrange (Lumiprobe, 5000x stock in DMSO) in 10 mM HEPES, 150 mM NaCl, 50 µM TCEP (pH 7.4). The samples were heated from 35 °C to 79°C at a rate of 0.3 °C per 15 s in a C FX96 Touch Real-Time PCR Detection System (Bio -Rad). Fluorescence intensity was determined using excitation ( λem=525/20 nm) and emission ( λex=570/20 nm) filters.
Based on these melting curves, the negative derivative melting curve is obtained from which the melting temperature Tm was determined. All described melting temperatures are based on two or three independent experiments, from which the average and standard deviations were determined.
X-ray crystallography data collection and refinement
For x-ray crystallography, a C-terminally truncated 14-3-3σ protein (truncated after T231 to reduce flexibility) was used. This 14-3-3σ∆C was preincubated with Tau pS214 in complexation buffer (20 mM HEPES pH 7.5, 2 mM MgCl2 and 100 μM TCEP) in a 1:1.5 molar stoichiometry (protein:peptide) at a final protein concentration of 10.0 mg/mL. […]

| SMILES | ΔTm [°C] |
| --- | --- |
| O=Cc1ccc(-n2ccnc2-c2ccc(C(F)(F)F)cc2)cc1Br [Compound 20] | 0.9 to 2.1 |
| Cc1ccc(-c2nccn2-c2ccc(C=O)c(Br)c2)cc1 [Compound 11] | 0.9 to 2.1 |
| O=Cc1ccc(-n2ccnc2-c2ccc(Cl)cc2)cc1Br [Compound 14] | 0.9 to 2.1 |

Other lines, results leading:

| ΔTm [°C] | SMILES |
| --- | --- |
| 0.9 to 2.1 | O=Cc1ccc(-n2ccnc2-c2ccc(F)cc2)cc1Br [Compound 13] |
| 0.9 to 2.1 | N#Cc1ccc(-c2nccn2-c2ccc(C=O)c(Br)c2)cc1 [Compound 22] |
| 0.9 to 2.1 | O=Cc1ccc(-n2ccnc2-c2ccc(OC(F)(F)F)cc2)cc1Br [Compound 21] |
| 0.9 to 2.1 | O=Cc1ccc(-n2ccnc2-c2ccccc2)cc1Br [Compound 1] |
